This is an account of results in patent publication US20030199431A1, “Modified peptide nucleic acid (PNA) molecules” (priority 1999, published 2003).

Converted amounts (≈) assume the structure as drawn. Read-outs that look alike come from different tables or passages of the source.

For test [1], the system named is S. aureus strain 700698R. As to conditions: S. aureus strain ATCC 700698R; additional 24 hours at 35° C.
Test [2] concerns Staphylococcus aureus NCTC 8325. Details: MIC: unit not given beside the values. The settings on record: S. aureus strain 8325.
In test [3] the test system is S. aureus strain 700698. Details: MIC: unit not given beside the values. As to conditions: S. aureus strain ATCC 700698.
Another test relates to E. coli K12. The class given is cell-based, Escherichia coli.
The test system of test [4] is Escherichia coli K12 MG1655. It counts as cell-based. The settings on record: cultures with 10^4-10^1 cells/ml; 37° C., 16 hours. An excerpt: (§1) The bacterial growth assay is designed to identify modified PNA molecules that inhibit or completely abolish bacterial growth. Growth inhibition results from antisense binding of PNA to mRNA of the targeted gene. The compound tested is present during the entire assay.
(§2) The experimental bacterial strain used is Escherichia coli K12 MG1655 (E. coli Genentic Stock Center, Yale University, New Haven). The medium for growth is 10% sterile LB (Lurea Bertani) medium. E. coli test cells are pre-cultured in LB medium at 37° C. over night (over night culture). The screen is performed in 96-well microtiter plates at 37° C. with constant shaking. PNAs are dissolved in H2O as a 40×concentrated stock solution.
(§3) A fresh culture (test culture) is inoculated with an overnight culture and grown to mid-log-phase (OD600=0.1 corresponding to 10^7 cells/ml) at 37° C. The test culture is diluted stepwise in the range 10^5 to 10^1 with 10% LB medium. 195 μl of diluted culture and 5 μl of a 40×concentrated PNA stock solution are added to each test well. 96-well microtiter plates are incubated in a microplate scanning spectrophotometer at 37° C. under constant shaking. OD600 measurements are performed automatically every 3.19 minutes and recorded simultaneously.
The assay was performed as follows.

The subject of test [5] is Escherichia coli K12 MG1655. It counts as cell-based. The settings on record: cultures with 10^4-10^1 cells/ml; 37° C., 16 hours.
Text: as §1, §2, §3
The assay was performed as follows. […] PNA design no. 2
This is another data set of the same source.

Test [6] has as its system S. aureus strain 700698R. As to conditions: S. aureus strain ATCC 700698R; characteristics of the strain; cited from earlier work.
In test [7] the test system is Staphylococcus aureus NCTC 8325. As to conditions: S. aureus strain 8325; characteristics of the strain; cited from earlier work.
For test [8], the system named is S. aureus strain 700698. The settings on record: S. aureus strain ATCC 700698; characteristics of the strain; cited from earlier work.
In test [9] the test system is Enterococcus faecium strain 8803. The settings on record: E. facium strain 8803.
Test [10] concerns Enterococcus faecium ATCC 51550. As to conditions: E. facium strain ATCC 51550.
Test [11] relates to Enterococcus faecium ATCC 700221. As to conditions: E. facium strain ATCC 700221.

The term MBC denotes the lowest tested concentration that kills the bacteria rather than only halting them. One may read the MIC as the lowest concentration found to suppress growth. For `Cc1cn(CC(=O)N(CCNC(=O)CN(CCNC(=O)CN(CCNC(=O)CN(CCNC(=O)CN(CCNC(=O)CN(CCNC(=O)CN(CCNC(=O)COCCOCCNC(=O)C2CCC(CN3C(=O)CC(SC[C@H](NC(=O)[C@H](CCCCN)NC(=O)[C@H](CCCCN)NC(=O)[C@@H](NC(=O)[C@@H](NC(=O)[C@H](Cc4ccccc4)NC(=O)[C@H](CCCCN)NC(=O)[C@@H](NC(=O)[C@H](CCCCN)NC(=O)[C@H](Cc4ccccc4)NC(=O)[C@H](CCCCN)NC(=O)[C@@H](N)CCCCN)C(C)C)C(C)C)C(C)C)C(=O)O)C3=O)CC2)C(=O)Cn2cnc3c(N)ncnc32)C(=O)Cn2ccc(N)nc2=O)C(=O)Cn2cc(C)c(=O)[nH]c2=O)C(=O)Cn2cc(C)c(=O)[nH]c2=O)C(=O)Cn2cc(C)c(=O)[nH]c2=O)C(=O)Cn2cnc3c(=O)[nH]c(N)nc32)CC(=O)NCCN(CC(=O)NCCN(CC(=O)NCCN(CC(=O)NCCN(CC(=O)NCCN(CC(N)=O)C(=O)Cn2ccc(N)nc2=O)C(=O)Cn2ccc(N)nc2=O)C(=O)Cn2ccc(N)nc2=O)C(=O)Cn2cnc3c(=O)[nH]c(N)nc32)C(=O)Cn2ccc(N)nc2=O)c(=O)[nH]c1=O` (stereo partly drawn) [Example 24, H2N-KKFKVKFVVKKC-smcc-Ado-ACTTTGTCGCCC-NH2], the values for the MBC entry (against S. aureus strain 700698R [1]; in test [2] (additional 24 hours at 35° C.); in the test with S. aureus strain 700698 [3] (additional 24 hours at 35° C.)) were “≧1600 nM”, 1.6 µM (≈ 8.07 µg/mL) and 1.6 µM (≈ 8.07 µg/mL), respectively. For the same molecule, the MIC (in test [2]; against S. aureus strain 700698 [3]) was 800/1600 throughout.
Consider “H-KFFKFFKFF-ado-JTJTJJT-ado-ado-ado-TCCCTCTC-Lys-NH2 [Example 5]”, for which the Bacterial growth inhibition result with E. coli K12 is listed as “− (key: +: Total inhibition of bacterial growth.; (+): Significantly extended lagphase, (more than five times); −: Lagphase extended less than five times;)”.
Still for that read-out and setting: in the case of “H-LLKKLAKALKG-ahex-ado-CCA TCT AAT CCT-NH2 [PNA 228]” it was “− (key: +: Total inhibition of bacterial growth.; (+): Significantly extended lagphase, (more than five times); −: Lagphase extended less than five times;)”.
In the case of “H-KFFKFFKFFK-ado-TTTCATCCGCTG-Lys-NH2 [PNA 14]”, in test [4], the “PNA concentration giving total inhibition of growth” value is recorded as “at least 1.4 μM”.
As for “H-KFFKFFKFFK-ado-CACTGGAAATTT-Lys-NH2 [PNA 26]”, the “PNA concentration giving total inhibition of growth” value in test [5] is listed as “at least 2.5 μM”.
In the case of `CN[C@H](CC(C)C)C(=O)N[C@H]1C(=O)N[C@@H](CC(N)=O)C(=O)N[C@H]2C(=O)N[C@H]3C(=O)N[C@H](C(=O)N[C@H](C(=O)O)c4cc(O)cc(O)c4-c4cc3ccc4O)[C@H](O)c3ccc(c(Cl)c3)Oc3cc2cc(c3O[C@@H]2O[C@H](CO)[C@@H](O)[C@H](O)[C@H]2O[C@H]2C[C@](C)(N)[C@H](O)[C@H](C)O2)Oc2ccc(cc2Cl)[C@H]1O` [Vancomycin], the “Vancomycin MIC” value in the test with S. aureus strain 700698R [6] was 11 µg/mL; in [7], less than 0.5 µg/mL; in the test with S. aureus strain 700698 [8] it was 2 µg/mL.
For the molecule `CC[C@H](C)[C@H](NC(=O)[C@H](CCCCN)NC(=O)[C@H](CCCCN)NC(=O)[C@H](CC(C)C)NC(=O)[C@@H](NC(=O)[C@@H](NC(=O)[C@H](C)NC(=O)[C@@H](NC(=O)[C@H](CCCCN)NC(=O)[C@H](CCCCN)NC(=O)[C@@H](NC(=O)[C@H](CC(C)C)NC(=O)[C@@H](NC(=O)[C@@H](NC(=O)CNC(=O)[C@H](CC(C)C)NC(=O)[C@@H]1CCCN1C(=O)[C@H](C)NC(=O)[C@H](CC(C)C)NC(=O)[C@@H](NC(=O)[C@@H](N)CO)[C@@H](C)CC)[C@@H](C)O)[C@@H](C)O)C(C)C)C(C)C)[C@@H](C)O)[C@@H](C)O)C(=O)N[C@@H](Cc1ccccc1)C(=O)N[C@@H](CO)C(=O)N[C@@H](CCCCN)C(=O)N[C@@H](Cc1c[nH]c2ccccc12)C(=O)N[C@@H](CCCCN)C(=O)N[C@@H](CSC1CC(=O)N(CC2CCC(C(=O)NCCOCCOCC(=O)NCCN(CC(=O)NCCN(CC(=O)NCCN(CC(=O)NCCN(CC(=O)NCCN(CC(=O)NCCN(CC(=O)NCCN(CC(=O)NCCN(CC(=O)NCCN(CC(=O)NCCN(CC(=O)NCCN(CC(=O)NCCN(CC(N)=O)C(=O)Cn3cnc4c(N)ncnc43)C(=O)Cn3cc(C)c(=O)[nH]c3=O)C(=O)Cn3cc(C)c(=O)[nH]c3=O)C(=O)Cn3cc(C)c(=O)[nH]c3=O)C(=O)Cn3cnc4c(N)ncnc43)C(=O)Cn3ccc(N)nc3=O)C(=O)Cn3cnc4c(N)ncnc43)C(=O)Cn3cnc4c(N)ncnc43)C(=O)Cn3cc(C)c(=O)[nH]c3=O)C(=O)Cn3ccc(N)nc3=O)C(=O)Cn3cc(C)c(=O)[nH]c3=O)C(=O)Cn3cc(C)c(=O)[nH]c3=O)CC2)C1=O)C(=O)O` (stereo partly drawn) [Example 22], the MIC in test [9], in test [10] and in test [11] was less than 0.4 µM each time. Besides, the MBC in [9] (additional 24 hours at 35° C.), in test [10] (additional 24 hours at 35° C.) and in test [11] (additional 24 hours at 35° C.) was less than 0.4 µM in each case.
